Literature values as cited in patent US9974685B2, “Drug delivery system and methods of treating open angle glaucoma and ocular hypertension” (Mati Therapeutics, Inc., priority 2011, dated 2018).

Experiments:
rabbits = conditions: twice-daily ocular instillation, doses up to 50 μg per eye for 52 weeks (100 μg/eye/day)
healthy volunteers = conditions: 28 healthy volunteers; 1 drop of 50 μg/mL 4 times daily for 2 weeks; resolved spontaneously without cessation of treatment
cynomolgus monkeys = conditions: doses up to 50 μg/eye twice daily (100 μg/eye/day), 52 weeks, not judged to be deleterious

In the case of `CC(C)OC(=O)CCC/C=C\C[C@@H]1[C@@H](CC[C@@H](O)CCc2ccccc2)[C@H](O)C[C@@H]1O` [Latanoprost, isopropyl-(Z)-7 [(1R,2R,3R,5S)3,5-dihydroxy-2-[(3R)-3-hydroxy-5-phenylpentyl]cyclopentyl]-5-heptenoate], the adverse effects (rabbits) is given as “no adverse effects”, the “solubility in organic solvents” value (acetone, ethanol, ethyl acetate, isopropanol, methanol and octanol) is given as “freely soluble” and the solubility in acetonitrile (acetonitrile) is given as “very soluble”. For the same compound, the solubility in water (water) was “practically insoluble”, the “ocular effects during the 4-dose regimen” value (healthy volunteers) was “transient photophobia, cells, and mild flare were common” and the effects observed (cynomolgus monkeys) was “a reversible change in the aspect of the palpebral fissure and a non-reversible increase in iris pigmentation”.
